Results published in patent US20110230478A1 (Bayer ScienceCrop AG, priority 2008, published 2011).
Where two headings read alike, the source gives them in different places.

Experiment: logP by HPLC on reversed-phase columns (C 18), EEC Directive 79/831 Annex V.A8
Format: physicochemical
Conditions: for chromatographic logP: reversed-phase HPLC column (C 18)
[1] = values marked [b], footnote not given
[2] = values marked [c], footnote not given
[3] = method marker [b] (compound 257: pH2.7)

SMILES | logP [1] | logP [3] | other results
CC(C)Nc1nc(Nc2ccc(NC(=O)C(C)(C)C)cc2)ncc1Cl [Example 188] | 1.81[b] | – | –
CC(=O)Nc1ccc(Nc2ncc(Cl)c(NC(C)C)n2)cc1Cl [Example 190] | 1.61[b] | – | –
CC(C)Nc1nc(Nc2ccc(NC(=O)C(F)(F)F)cc2)ncc1Cl [Example 193] | 1.93[b] | – | –
CC(=O)Nc1cccc(Nc2ncc(Cl)c(NC(C)C)n2)c1 [Example 195] | 1.39[b] | – | –
C=C(C)C(=O)Nc1cccc(Nc2ncc(Cl)c(NC(C)C)n2)c1 [Example 196] | 1.66[b] | – | –
CC(C)Nc1nc(Nc2cccc(NC(=O)C(C)(C)C)c2)ncc1Cl [Example 197] | 1.91[b] | – | –
CCOC(=O)Nc1ccc(Nc2ncc(Cl)c(NC(C)C)n2)cc1 [Example 202] | 1.66[b] | – | –
COC(=O)Nc1cccc(Nc2ncc(Cl)c(NC(C)C)n2)c1 [Example 204] | 1.59[b] | – | –
CC(C)Nc1nc(Nc2ccc3[nH]c(=O)oc3c2)ncc1Cl [Example 205] | 1.44[b] | – | –
CC(=O)N1CCc2ccc(Nc3ncc(Cl)c(NC(C)C)n3)cc21 [Example 206] | 1.61[b] | – | –
CC(C)Nc1nc(Nc2cccc(NC(=O)C3(C)CC3)c2)ncc1Cl [Example 207] | 1.78[b] | – | –
CC(C)Nc1nc(Nc2cccc(OC(F)(F)C(F)F)c2)ncc1Cl [Example 211] | 2.88[b] | – | –
CCOC(=O)Nc1cccc(Nc2ncc(Cl)c(NC(C)C)n2)c1 [Example 216] | 1.81[b] | – | –
CSc1cccc(Nc2ncc(Cl)c(N(C)C(C)C)n2)c1 [Example 219] | – | – | logP (values marked [a], pH 2.3): 3.45[a];; logP [2]: 4.64[c]
N#CCNc1nc(Nc2ccccc2)ncc1Cl [Example 220] | – | – | logP (values marked [a], pH 2.3): 1.62[a];; logP [2]: 2.2[c]
CSc1cccc(Nc2ncc(Cl)c(NCC#N)n2)c1 [Example 221] | – | – | logP (values marked [a], pH 2.3): 2.27[a]
COCCN(C)c1nc(Nc2ccccc2)ncc1Cl [Example 222, 5-Chloro-N^4-(2-methoxyethyl)-N^4-methyl-N^2-phenylpyrimidine-2,4-diamine] | – | – | chromatographic logP (pH 2.3, pH 2.3, 0.1% aqueous phosphoric acid and acetonitrile, read-out: logP [a]): 2.02; chromatographic logP (pH 2.3, values marked [a], pH 2.3, read-out: logP): 2.02
CC(CO)Nc1nc(Nc2ccccc2)ncc1Cl (stereo not drawn) [Example 223] | – | – | logP (values marked [a], pH 2.3): 1.04[a]
COCC(Nc1nc(Nc2ccccc2)ncc1Br)C(C)C (stereo not drawn) [Example 224] | 2.55[b] | – | –
COCC(C)Nc1nc(Nc2cccc(C)c2)ncc1Cl (stereo not drawn) [Example 225] | 1.98[b] | – | –
COCC(C)Nc1nc(Nc2ccc(N3C(=O)CN(C)C3=O)cc2)ncc1Cl (stereo not drawn) [Example 227] | 1.41[b] | – | –

SMILES | logP [1] | logP [3] | other results
Cc1cccc(Nc2ncc(Cl)c(NC(C)C)n2)c1 [Example 229] | 2[b] | – | logP [2]: 3.84[c];
COCC(C(C)C)N(C)c1nc(Nc2ccccc2)ncc1Br (stereo not drawn) [Example 231] | – | – | logP (values marked [a], pH 2.3): 2.47[a]
CCC(COC)N(C)c1nc(Nc2ccccc2)ncc1Br (stereo not drawn) [Example 232] | – | – | logP (values marked [a], pH 2.3): 2.23[a]
CC(C)CC(C)N(C)c1nc(Nc2ccccc2)ncc1Br (stereo not drawn) [Example 233] | – | – | logP (values marked [d], footnote not given): 3.39[d]
CNc1nc(Nc2cccc(CC#N)c2)ncc1Cl [Example 235] | 1.1[b] | – | –
CC(C)Nc1nc(Nc2cccc(CC#N)c2)ncc1Cl [Example 236] | – | – | logP [2]: 1.69[c]
CCOCCN(C)c1nc(Nc2ccccc2)ncc1Br [Example 237] | 2.55[b] | – | logP [2]: 3.95[c];
CCNc1nc(Nc2cccc(SC)c2)ncc1Cl [Example 238] | 1.92[b] | – | logP [2]: 3.46[c];
CCN(C)c1nc(Nc2cccc(SC)c2)ncc1Cl [Example 239] | 2.99[b] | – | logP [2]: 4.32[c];
CCNc1nc(Nc2ccccc2)ncc1Cl [Example 240] | 1.38[b] | – | logP [2]: 3.03[c];
CCN(C)c1nc(Nc2ccccc2)ncc1Cl [Example 241] | 2.11[b] | – | logP [2]: 3.85[c];
CC(C)Nc1nc(Nc2cccc(CS(=O)(=O)N(C)C(C)C)c2)ncc1Cl [Example 242] | 2.18[b] | – | logP [2]: 3.44[c];
CCN(C)S(=O)(=O)Cc1cccc(Nc2ncc(Cl)c(NC(C)C)n2)c1 [Example 243] | 1.96[b] | – | logP [2]: 3.18[c];
COCC(C)Nc1nc(Nc2cccc(C=O)c2)ncc1Cl (stereo not drawn) [Example 244] | 1.8[b] | – | logP [2]: 2.75[c];
CC(C)Nc1nc(Nc2ccc(C(=O)N(C)C)cc2)ncc1Br [Example 245] | – | 1.54[b] | –
CC(C)Nc1nc(Nc2cccc(CC#N)c2)ncc1Br [Example 246] | – | 1.84[b] | logP (method marker [c]): 3.13[c];
CC(C)Nc1nc(Nc2ccccc2)ncc1Br [Example 247] | – | 1.89[b] | logP (method marker [c]): 3.7[c];
CC(C)Nc1nc(Nc2cccc(CS(=O)(=O)NC(C)c3ccccc3)c2)ncc1Cl (stereo not drawn) [Example 248] | – | 2.32[b] | logP (method marker [c]): 3.57[c];
CC(C)Nc1nc(Nc2cccc(CS(=O)(=O)N(C)C)c2)ncc1Cl [Example 250] | – | 1.69[b] | logP (method marker [c]): 2.85[c];
CC(C)Nc1nc(Nc2cccc(CS(=O)(=O)NCc3ccccc3)c2)ncc1Cl [Example 251] | – | 2.18[b] | logP (method marker [c]): 3.35[c];
CC(C)Nc1nc(Nc2cccc(C=O)c2)ncc1Cl [Example 252] | – | 1.86[b] | logP (method marker [c]): 3.06[c];

SMILES | logP [1] | logP [3] | other results
CC(=O)Cc1cccc(Nc2ncc(Cl)c(NC3CCCC3)n2)c1 [Example 255] | – | 2.01[b] | –
CC(C)c1cccc(Nc2ncc(C(F)(F)F)c(NC3CCCC3)n2)c1 [Example 257, N^4-Cyclopentyl-N^2-[3-(propan-2-yl)phenyl]-5-(trifluoromethyl)pyrimidine-2,4-diamine] | – | – | chromatographic logP (pH 2.7, LC-MS, pH 2.7, 0.1% aqueous formic acid and acetonitrile, read-out: logP [b]): 5.08; chromatographic logP (pH 2.7, method marker [b] (compound 257: pH2.7), read-out: logP): 5.08
CC(=O)c1cccc(Nc2ncc(Cl)c(NC3CCCCC3)n2)c1 [Example 262] | – | – | logP (method marker [a]): 2.53[a]
CCN(CC)c1ccc(Nc2ncc(Cl)c(NC3CCCCC3)n2)cc1 [Example 265] | – | – | logP (method marker [a]): 1.69[a]
CC(=O)c1ccc(Nc2ncc(Cl)c(NC3CCCCC3)n2)cc1 [Example 266] | – | – | logP (method marker [a]): 2.77[a]
CS(=O)(=O)c1ccc(Nc2ncc(Cl)c(NC3CCCCC3)n2)cc1 [Example 267] | – | – | logP (method marker [a]): 2.54[a]
CCN(c1nc(Nc2ccccc2)ncc1Cl)C(C)C [Example 269] | – | 3[b] | –
CC(C)CN(C)c1nc(Nc2ccccc2)ncc1Cl [Example 270] | – | 3[b] | –
C=CCN(C)c1nc(Nc2ccccc2)ncc1Cl [Example 271] | – | 2.66[b] | logP (method marker [c]): 4.03[c];
CCCN(C)c1nc(Nc2ccccc2)ncc1Cl [Example 272] | – | 2.55[b] | logP (method marker [c]): 4.35[c];
CC(C)(C)CNc1nc(Nc2ccccc2)ncc1Cl [Example 273] | – | 2.48[b] | –
CCCC(C)Nc1nc(Nc2ccccc2)ncc1Cl (stereo not drawn) [Example 274] | – | 2.41[b] | –
CCC(CC)Nc1nc(Nc2ccccc2)ncc1Cl [Example 275] | – | 2.34[b] | –
CCC(C)CNc1nc(Nc2ccccc2)ncc1Cl (stereo not drawn) [Example 276] | – | 2.37[b] | –
CC(C)CCNc1nc(Nc2ccccc2)ncc1Cl [Example 277] | – | 2.37[b] | –
CCCCCNc1nc(Nc2ccccc2)ncc1Cl [Example 278] | – | 2.41[b] | –
CC(C)CNc1nc(Nc2ccccc2)ncc1Cl [Example 279] | – | 2.02[b] | –
CCCNc1nc(Nc2ccccc2)ncc1Cl [Example 280] | – | 1.69[b] | –
CC(C)Nc1nc(Nc2cccc(C(F)F)c2)ncc1Cl [Example 281] | – | 2.4[b] | –
CCCCN(C)c1nc(Nc2cccc(SC)c2)ncc1Cl [Example 282] | – | 3.9[b] | –
CSc1cccc(Nc2ncc(Cl)c(NCC(C)C)n2)c1 [Example 283] | – | 2.69[b] | –

More lines, main results first:

logP [1] | logP [3] | SMILES | other results
1.32[b] | – | CC(=O)Nc1ccc(Nc2ncc(Cl)c(NC(C)C)n2)cc1 [Example 189] | –
1.66[b] | – | CCN(C(C)=O)c1ccc(Nc2ncc(Cl)c(NC(C)C)n2)cc1 [Example 191] | –
1.51[b] | – | CC(=O)N(C)c1ccc(Nc2ncc(Cl)c(NC(C)C)n2)cc1 [Example 192] | –
1.71[b] | – | CC(C)Nc1nc(Nc2ccc(NC(=O)C3(C)CC3)cc2)ncc1Cl [Example 194] | –
2.08[b] | – | CC(C)Nc1nc(Nc2cccc(S(=O)(=O)N3CCCCC3)c2)ncc1Cl [Example 198] | –
2.06[b] | – | CC(=O)c1ccc(Nc2ncc(Cl)c(NC(C)C)n2)cc1 [Example 200] | –
1.53[b] | – | COC(=O)Nc1ccc(Nc2ncc(Cl)c(NC(C)C)n2)cc1 [Example 201] | –
1.61[b] | – | CC(C)Nc1nc(Nc2ccc(NC(=O)C(C)C)cc2)ncc1Cl [Example 209] | –
2.88[b] | – | CC(C)Nc1nc(Nc2ccc(SC(F)F)cc2)ncc1Cl [Example 212] | –
1.24[b] | – | CC(C)Nc1nc(Nc2ccc(O)cc2)ncc1Cl [Example 213] | –
1.63[b] | – | CC(C)Nc1nc(Nc2ccc3cc[nH]c3c2)ncc1Cl [Example 215] | –
– | 2.53[b] | CC(=O)c1cccc(Nc2ncc(Cl)c(NC3CCCCC3)n2)c1.Cl [Example 249] | –
– | 2.47[b] | Brc1cnc(Nc2ccccc2)nc1NC1CCCC1 [Example 253] | –
– | 2.28[b] | Clc1cnc(Nc2ccccc2)nc1NC1CCCC1 [Example 254] | –
– | 2.93[b] | CSc1cccc(Nc2ncc(Cl)c(NC3CCCC3)n2)c1 [Example 256] | –
– | 3.81[b] | Clc1cccc(Nc2ncc(Cl)c(NC3CCCCC3)n2)c1 [Example 258] | –
– | 2.53[b] | Clc1cnc(Nc2ccccc2)nc1NC1CCCCC1 [Example 259] | –
– | 2.77[b] | COc1cc(Nc2ncc(Cl)c(NC3CCCCC3)n2)cc(OC)c1 [Example 260] | –
– | 2.26[b] | COc1cc(Nc2ncc(Cl)c(NC3CCCCC3)n2)cc(OC)c1OC [Example 261] | –
– | 3.18[b] | CN(C)S(=O)(=O)c1ccc(Nc2ncc(Cl)c(NC3CCCCC3)n2)cc1 [Example 263] | –
– | 2.95[b] | CC(C)(C)OC(=O)N1CCN(c2ccc(Nc3ncc(Cl)c(NC4CCCCC4)n3)cc2)CC1 [Example 264] | –
